Values joined by “and” are separate entries in the source; they are usually repeats but may differ in a detail not shown here. Equal entries are not always repeated. Active and inactive are the calls of the source.
What was measured:
[1] = target: T1, Cytochrome P450 1A2 (Homo sapiens, UniProt P05177);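 also: PubChem cytochrome P450 panel assay, CYP1A2 panel member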
T1 sequence (P05177 whole entry): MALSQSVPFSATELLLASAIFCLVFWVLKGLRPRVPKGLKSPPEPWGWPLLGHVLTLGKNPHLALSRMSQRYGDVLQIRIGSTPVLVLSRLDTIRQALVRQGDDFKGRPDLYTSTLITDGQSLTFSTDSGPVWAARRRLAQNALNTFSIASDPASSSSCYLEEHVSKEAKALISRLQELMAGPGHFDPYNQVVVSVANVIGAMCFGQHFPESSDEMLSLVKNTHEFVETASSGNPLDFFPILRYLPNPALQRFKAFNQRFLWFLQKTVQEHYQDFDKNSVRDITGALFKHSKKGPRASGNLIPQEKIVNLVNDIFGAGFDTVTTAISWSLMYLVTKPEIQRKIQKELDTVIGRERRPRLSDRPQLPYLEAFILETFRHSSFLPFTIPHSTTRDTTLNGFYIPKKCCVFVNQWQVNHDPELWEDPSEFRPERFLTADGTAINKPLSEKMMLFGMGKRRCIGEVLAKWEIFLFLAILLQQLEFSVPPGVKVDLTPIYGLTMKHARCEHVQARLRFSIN

[2] = target: Cytochrome P450 2C9 (Homo sapiens, UniProt P11712)
Cytochrome P450 2C9, sequence (P11712 whole entry): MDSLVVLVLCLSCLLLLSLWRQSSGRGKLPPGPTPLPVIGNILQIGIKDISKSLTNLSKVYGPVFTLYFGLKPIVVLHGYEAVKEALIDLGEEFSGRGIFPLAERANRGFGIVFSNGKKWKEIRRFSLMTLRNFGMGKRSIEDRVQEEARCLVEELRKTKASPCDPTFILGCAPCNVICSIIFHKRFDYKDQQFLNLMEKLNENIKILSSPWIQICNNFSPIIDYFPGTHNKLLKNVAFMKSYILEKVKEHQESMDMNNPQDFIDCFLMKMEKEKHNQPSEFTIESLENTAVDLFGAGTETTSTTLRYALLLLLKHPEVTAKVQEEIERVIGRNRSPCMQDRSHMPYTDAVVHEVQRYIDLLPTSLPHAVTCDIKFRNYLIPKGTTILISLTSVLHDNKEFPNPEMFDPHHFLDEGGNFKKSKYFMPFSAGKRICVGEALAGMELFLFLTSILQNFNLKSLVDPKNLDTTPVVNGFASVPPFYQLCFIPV

[3] = target: Cytochrome P450 3A4 (Homo sapiens, UniProt P08684);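 also: CYP3A4 tested as one member of a cytochrome P450 panel screen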
Cytochrome P450 3A4, sequence (P08684 whole entry): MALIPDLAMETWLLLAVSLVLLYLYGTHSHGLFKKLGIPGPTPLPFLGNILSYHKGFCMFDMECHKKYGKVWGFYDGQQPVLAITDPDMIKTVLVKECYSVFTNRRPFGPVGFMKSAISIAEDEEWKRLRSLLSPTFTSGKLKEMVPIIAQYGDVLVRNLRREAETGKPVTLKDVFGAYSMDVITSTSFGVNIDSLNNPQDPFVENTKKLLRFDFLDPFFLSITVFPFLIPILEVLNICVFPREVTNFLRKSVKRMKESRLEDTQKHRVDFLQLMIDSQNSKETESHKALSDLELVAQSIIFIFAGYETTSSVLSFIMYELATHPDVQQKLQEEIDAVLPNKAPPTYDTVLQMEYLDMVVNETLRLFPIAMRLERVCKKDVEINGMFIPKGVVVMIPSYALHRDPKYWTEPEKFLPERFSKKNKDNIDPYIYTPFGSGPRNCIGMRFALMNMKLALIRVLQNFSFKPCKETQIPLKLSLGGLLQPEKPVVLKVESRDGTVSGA

[4] = target: T2, Rac GTPase-activating protein 1 (Homo sapiens, UniProt Q9H0H5); assay: blockers of MgcRacGAP-driven Rac1 GTP hydrolysis – biochemical, ADP Hunter fluorescence, primary and confirmatory, confirmation (AID 624330); assay type: functional
T2 sequence (Q9H0H5 whole entry): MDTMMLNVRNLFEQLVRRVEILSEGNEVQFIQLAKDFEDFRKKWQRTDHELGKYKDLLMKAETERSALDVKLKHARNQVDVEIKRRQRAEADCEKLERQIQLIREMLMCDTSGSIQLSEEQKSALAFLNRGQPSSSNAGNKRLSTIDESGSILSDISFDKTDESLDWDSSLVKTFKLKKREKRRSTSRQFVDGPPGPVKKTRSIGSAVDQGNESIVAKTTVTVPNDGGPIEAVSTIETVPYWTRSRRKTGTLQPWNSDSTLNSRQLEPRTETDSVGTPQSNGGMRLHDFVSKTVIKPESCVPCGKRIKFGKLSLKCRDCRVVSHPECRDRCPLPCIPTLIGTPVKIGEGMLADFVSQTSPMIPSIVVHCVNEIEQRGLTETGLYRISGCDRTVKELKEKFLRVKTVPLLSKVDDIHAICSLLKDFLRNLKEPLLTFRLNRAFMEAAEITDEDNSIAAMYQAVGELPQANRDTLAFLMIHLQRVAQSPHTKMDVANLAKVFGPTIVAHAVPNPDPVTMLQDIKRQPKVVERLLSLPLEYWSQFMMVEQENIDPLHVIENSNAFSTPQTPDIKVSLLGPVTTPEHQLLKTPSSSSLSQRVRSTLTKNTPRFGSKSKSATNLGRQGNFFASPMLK

[5] = target: Cytochrome P450 2C19 (Homo sapiens, UniProt P33261); assay: Cytochrome panel assay with activity outcomes. Panel member name: p450-cyp2c19 Compounds with AC50 equal or less than 10 uM are considered active; assay type: functional
Cytochrome P450 2C19, sequence (P33261 whole entry): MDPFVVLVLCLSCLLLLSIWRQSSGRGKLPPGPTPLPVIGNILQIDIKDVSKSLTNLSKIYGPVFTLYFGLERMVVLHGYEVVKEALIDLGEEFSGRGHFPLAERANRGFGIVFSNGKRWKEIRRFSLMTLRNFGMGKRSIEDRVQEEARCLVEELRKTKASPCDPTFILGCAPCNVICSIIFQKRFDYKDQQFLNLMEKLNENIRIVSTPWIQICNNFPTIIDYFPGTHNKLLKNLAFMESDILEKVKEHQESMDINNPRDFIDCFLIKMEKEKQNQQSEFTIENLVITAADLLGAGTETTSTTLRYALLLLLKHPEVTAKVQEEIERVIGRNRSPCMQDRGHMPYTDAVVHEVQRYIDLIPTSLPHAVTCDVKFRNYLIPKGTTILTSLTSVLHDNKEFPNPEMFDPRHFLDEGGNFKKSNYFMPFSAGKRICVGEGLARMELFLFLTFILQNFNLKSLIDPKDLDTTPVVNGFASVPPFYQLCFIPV

[6] = luciferase reporter signal suppression in cells – H4 neuroglioma cells, luminescence, dose response (AID 1990); assay type: functional, cell-based
[7] = Luminescence Cell-Based Dose Response HTS to Identify Inhibitors of 5'UTR Stem-Loop Driven Prion Protein mRNA Translation in H4 Neuroglioblastoma Cells. [Related pubchem assays: 1827 (Project Summary), 1813 (Primary HTS)]; assay type: functional
[8] = alpha-synuclein stem-loop luciferase translation blockers – H4 neuroglioma cells, luminescence, confirmation (AID 1988); assay type: functional, cell-based
[9] = system: Streptococcus; assay: GAS UMAA2166 growth inhibition – luminescence, BacTiterGlo, counter-screen for streptokinase expression inhibitor project, dose response (AID 1915); assay type: functional, organism-based;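 also: potency for reduction of bacterial viability or growth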
[10] = system: Streptococcus sp. 'group A'; assay: Streptococcus pyogenes SK(-)GAS viability under kanamycin – luminescence, BacTiterGlo, confirmation, counter-screen for streptokinase expression inhibitor project, dose response (AID 1900); assay type: functional, organism-based
[11] = target: T3, Streptokinase A (Streptococcus pyogenes serotype M1, UniProt P10520); assay: viability-normalized secreted streptokinase activity reduction – plasminogen activation absorbance, OD405, dose response (AID 1914); assay type: functional, Streptococcus pyogenes M1 GAS;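 also: secreted streptokinase activity via plasminogen activation per viability signal from cell pellet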
T3 sequence (P10520 whole entry): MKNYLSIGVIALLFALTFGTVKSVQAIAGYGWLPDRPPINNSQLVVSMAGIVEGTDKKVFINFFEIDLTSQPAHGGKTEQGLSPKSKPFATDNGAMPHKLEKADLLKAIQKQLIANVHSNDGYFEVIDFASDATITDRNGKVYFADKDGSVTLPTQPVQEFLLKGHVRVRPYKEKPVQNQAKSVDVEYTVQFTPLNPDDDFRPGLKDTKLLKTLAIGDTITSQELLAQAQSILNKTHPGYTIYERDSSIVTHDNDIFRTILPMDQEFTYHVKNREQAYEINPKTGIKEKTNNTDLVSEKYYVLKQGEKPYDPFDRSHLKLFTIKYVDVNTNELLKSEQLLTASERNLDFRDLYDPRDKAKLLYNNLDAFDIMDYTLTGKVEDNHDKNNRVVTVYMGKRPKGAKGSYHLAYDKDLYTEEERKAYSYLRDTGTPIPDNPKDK

[12] = system: H4; assay: Luminescence Cell-Based Dose Response HTS to Identify Activators of 5'UTR Stem-Loop Driven Prion Protein mRNA Translation in H4 Neuroglioblastoma Cells. [Related pubchem assays: 1829 (Project Summary), 1814 (Primary HTS)]; assay type: functional; details: Homo sapiens

NCCCCCCNS(=O)(=O)c1cccc2ccccc12
AC50 [1]: 25.1 µM (inconclusive)
AC50 [2]: 0.2 µM (inconclusive)

c1ccc([C@H]2CNCc3ccccc32)cc1
AC50 [3]: 15.8 µM (inconclusive)

COc1ccc(NC(=O)N2CC[C@@]3(CCCN(C(=O)c4cccc(F)c4)C3)C2)cc1
AC50 [1]: 25.1 µM (inconclusive)
AC50 [3]: 15.8 µM (inconclusive)

CCCCN(C)CCNC(=O)CSCc1ccc(C)cc1
IC50 [4]: 220 µM (active)

COc1cc(/C=C2/C(=N)N3OC(C)=CC3=NC2=O)ccc1OCCOc1ccc(C)cc1
AC50 ([5]; read-out: AC50): 4.47 µM (inconclusive)
AC50 [3]: 11.2 µM (inconclusive)

CN(C)c1ccc(-c2cc(-n3ccnc3)ncn2)cc1
AC50 [2]: 0.794 µM (inconclusive)

CN(Cc1ccccc1)C(=O)CC(c1ccccc1)c1cc(Cl)ccc1O (centres undefined)
AC50 [1]: 25.1 µM (inconclusive)

C=C1C(=O)O[C@@H]2[C@@H]1CC/C(C)=C\CC[C@@]1(C)O[C@H]21
AC50 [3]: 20 µM (inconclusive) and 12.6 µM (inconclusive)

CO[C@@H]1/C=C\O[C@]2(C)Oc3c(C)c(O)c4c(O)c(c(CN5CCN(C)CC5)c(O)c4c3C2=O)NC(=O)/C(C)=C\C=C[C@@H](C)[C@@H](O)[C@H](C)[C@@H](O)[C@H](C)[C@H](OC(C)=O)[C@@H]1C
AC50 [2]: 6.31 µM (inconclusive)

COc1cccc(CN2CCN(Cc3cccc(F)c3)CC2)c1
IC50 [4]: 86 µM (active)

CCOC(=O)c1oc2cc(OC(C)=O)ccc2c(=O)c1-c1ccc(OC)c(OC)c1
EC50 [6]: > 120 µM (not active)
EC50 [7]: > 120 µM (not active)
EC50 [8]: > 120 µM (not active)

O=C(Nc1cccc(OC(=O)c2cccnc2)c1)c1cccnc1
AC50 [2]: 28.2 µM (inconclusive)

Oc1nc(N2CCCCCC2)nc(N2CCCCCC2)n1
AC50 [1]: 22.4 µM (inconclusive)
AC50 ([5]; read-out: AC50): 5.62 µM (inconclusive)

CSc1nncc(-c2ccc(F)c(F)c2)n1
AC50 [2]: 28.2 µM (inconclusive)

CCc1ccc(/C=C2/C(=O)N(c3ccccc3)C(=S)N2CC(=O)OC)s1
EC50 [6]: > 120 µM (not active)
EC50 [7]: 11.2 µM (active)
EC50 [8]: 14.4 µM (active)

O=C(COc1ccccc1)Nc1ccc(-c2nnc(-c3ccco3)o2)cc1
AC50 [2]: 1.78 µM (inconclusive)
AC50 ([5]; read-out: AC50): 10 µM (inconclusive)

O=C(Nc1ccccc1)c1cc([N+](=O)[O-])ccc1NC1CCCCC1
EC50 [6]: 16.4 µM (active)
EC50 [7]: > 120 µM (not active)
EC50 [8]: > 120 µM (not active)

NS(=O)(=O)c1nc(S(=O)(=O)O)c2[nH]cnc2n1
AC50 [1]: 5.01 µM (inconclusive)
AC50 [5]: inconclusive

CC(C)CN(Cc1cc(=O)oc2cc(-c3ccccc3)c(O)cc12)CC(C)C
EC50 [9]: 14.3 µM (active)
EC50 [10]: 5.29 µM (active)
EC50 [6]: 12.1 µM (active)
EC50 [7]: > 120 µM (not active)
EC50 [11]: 2.43 µM (active)
EC50 [8]: > 120 µM (not active)

CCC/C=C(\CCC)C(NP(=O)(c1ccccc1)c1ccccc1)c1ccc(-c2ccccc2)cc1 (centres undefined)
AC50 [1]: 2.51 µM (inconclusive)

COc1ccccc1/C=C(/C(=O)OCC(=O)Nc1ccc(N(C)C)cc1)c1ccccc1
IC50 [4]: 61 µM (active)

CCOc1ccc(OCC)c(-c2c(=O)n(OCc3ccc(C(C)(C)C)cc3)c3ccccc3[n+]2[O-])c1
AC50 [3]: 12.6 µM (inconclusive)

COc1cc(OC)cc(C(=O)NC(=S)Nc2ccc(Cl)c(C(=O)O)c2)c1
AC50 [2]: 12.6 µM (inconclusive)

O=C1C2CCCN2C(c2ccccc2F)N1c1ccc(Cl)cc1 (centres undefined)
AC50 [1]: 2 µM (inconclusive)
AC50 [2]: 39.8 µM (inconclusive)
AC50 [3]: 14.1 µM (inconclusive)

CN(C)S(=O)(=O)c1ccc(Cl)c(NC(=O)COC(=O)CN2C(=O)C3CCCCC3C2=O)c1 (centres undefined)
EC50 [6]: > 120 µM (not active)
EC50 [7]: > 120 µM (not active)
EC50 [8]: > 120 µM (not active)

COc1ccc(C2CC(c3ccc4ccccc4c3)=NN2C(=O)COC(=O)C2CCC(=O)N2)cc1 (centres undefined)
EC50 [12]: 66.5 µM (active)

O=[N+]([O-])c1ccc2c(c1)N=C1O[C@H](c3c[nH]c4ccc(COc5ccccc5)cc34)C(O)=C1N2
AC50 ([5]; read-out: AC50): 3.16 µM (inconclusive)
AC50 [3]: 3.16 µM (inconclusive)

Fc1ccc(C(OCCN2CCN(C/C=C\c3ccccc3)CC2)c2ccc(F)cc2)cc1
AC50 [1]: 31.6 µM (inconclusive)
AC50 [3]: 15.8 µM (inconclusive)

Fc1ccccc1Nc1nnc(S)s1
IC50 [4]: 54.3 µM (active)

ClC1(Cl)CC1Cn1c(C2CC2)nc2ccccc21 (centres undefined)
EC50 [6]: > 120 µM (not active)
EC50 [7]: > 120 µM (not active)
EC50 [8]: > 120 µM (not active)

COc1cccc(Cn2c(=O)c(CCc3ccccc3)nc3cnc(N(C)C)nc32)c1
AC50 [3]: 2.51 µM (inconclusive)

COc1ccccc1N1CCN(Cc2cccc(Br)c2)CC1
IC50 [4]: 130 µM (active)

COc1ccc(/C=C(/C(=O)Nc2ccccc2C(=O)NC(C)C)c2ccccc2)cc1
EC50 [6]: 13.7 µM (active)
EC50 [7]: 83.5 µM (active)
EC50 [8]: 30.2 µM (active)

COc1ccc(NC2CCCN(C(=O)c3ccccc3C(F)(F)F)C2)cc1 (centres undefined)
IC50 [4]: 75.2 µM (active)

CCOC(=O)c1c(C)[nH]c(C)c1C(=O)CSc1nc2ccccc2c(=O)n1-c1ccc(C)cc1
EC50 [6]: 13.4 µM (active)
EC50 [7]: > 120 µM (not active)
EC50 [8]: > 120 µM (not active)

CCN=C(S)Nc1cc(Cl)ccc1Oc1ccccc1
EC50 [6]: > 120 µM (not active)
EC50 [7]: > 120 µM (not active)
EC50 [8]: > 120 µM (not active)

CC(=O)NN1C(=O)/C(=C\c2ccc(O)cc2)SC1=S
IC50 [4]: 121 µM (active)

Cc1c(NC(=O)C23CC4CC(CC(C)(C4)C2)C3)c(=O)n(-c2ccccc2)n1C
AC50 [5]: inconclusive
AC50 [3]: 31.6 µM (inconclusive)

COc1ccc(C(=O)N/C(=C/c2cccs2)C(=O)NCCCn2ccnc2)cc1OC
AC50 [2]: 5.01 µM (inconclusive)
AC50 ([5]; read-out: AC50): 8.91 µM (inconclusive)

COc1cc(N=Nc2ccc(C(=O)N(C)C)cc2)c(C)cc1N
IC50 [4]: 52.9 µM (active)

COc1ccc(C(=O)/C=C/c2ccc(O)cc2)c2c1CC(O)C(C)(C)O2 (centres undefined)
IC50 [4]: 56.9 µM (active)

COc1ccc(N2CCN(C(=O)c3ccc(C[S+]([O-])c4cccc(Cl)c4)o3)CC2)cc1 (centres undefined)
IC50 [4]: 326 µM (active)

Cc1cc(O)c(C)c(O)c1/C=N/NC(=O)c1cccnc1
IC50 [4]: 101 µM (active)

COc1cc(/C(C)=N/NC(=O)C(O)(c2ccccc2)c2ccccc2)ccc1O
IC50 [4]: 104 µM (active)

O=[N+]([O-])c1ccc2nc(N3CCNCC3)ccc2c1 [6-NITROQUIPAZINE]
AC50 [5]: inconclusive
AC50 [3]: 10 µM (inconclusive)

From ChEMBL document CHEMBL1201862, “PubChem BioAssay data set” (2004)
